Test results published in patent US10858352B2, “Pharmaceutical compounds” (Heptares Therapeutics Limited, priority 2018, dated 2020).

How the values were obtained:
Format in all cases: cell-based
[1] = molecular target: T1, human muscarinic M2 receptor (Homo sapiens, UniProt P08172); test: Alphascreen Surefire phospho-ERK1/2 functional assay, M2; details: CHO cells stably expressing human M2
T1 sequence (P08172 1-466): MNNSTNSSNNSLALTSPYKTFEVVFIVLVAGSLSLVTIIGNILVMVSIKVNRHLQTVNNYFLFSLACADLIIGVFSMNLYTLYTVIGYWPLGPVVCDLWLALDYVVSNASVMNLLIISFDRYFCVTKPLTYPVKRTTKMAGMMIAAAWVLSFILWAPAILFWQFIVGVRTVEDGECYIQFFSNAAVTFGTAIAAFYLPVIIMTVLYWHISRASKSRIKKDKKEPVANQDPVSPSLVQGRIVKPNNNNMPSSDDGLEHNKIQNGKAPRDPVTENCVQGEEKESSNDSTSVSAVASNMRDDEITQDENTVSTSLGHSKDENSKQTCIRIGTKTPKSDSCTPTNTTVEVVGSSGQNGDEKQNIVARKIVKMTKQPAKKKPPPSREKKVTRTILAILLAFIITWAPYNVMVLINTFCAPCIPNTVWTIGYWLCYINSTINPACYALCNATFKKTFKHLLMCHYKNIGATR
Procedure: (§1) ERK1/2 phosphorylation is a downstream consequence of both Gq/11 and Gi/o protein coupled receptor activation, making it highly suitable for the assessment of M1, M3 (Gq/11 coupled) and M2, M4 receptors (Gi/o coupled), rather than using different assay formats for different receptor subtypes. CHO cells stably expressing the human muscarinic M1, M2, M3 or M4 receptor were plated (25K/well) onto 96-well tissue culture plates in MEM-alpha+10% dialysed FBS. Once adhered, cells were serum-starved overnight. Agonist stimulation was performed by the addition of 5 μL agonist to the cells for 5 min (37° C.). Media was removed and 50 μL of lysis buffer added. After 15 min, a 4 μL sample was transferred to 384-well plate and 7 μL of detection mixture added. […]

[2] = molecular target: T2, human muscarinic M1 receptor (Homo sapiens, UniProt P11229); test: Alphascreen Surefire phospho-ERK1/2 functional assay, M1; details: CHO cells stably expressing human M1
T2 sequence (P11229 1-460): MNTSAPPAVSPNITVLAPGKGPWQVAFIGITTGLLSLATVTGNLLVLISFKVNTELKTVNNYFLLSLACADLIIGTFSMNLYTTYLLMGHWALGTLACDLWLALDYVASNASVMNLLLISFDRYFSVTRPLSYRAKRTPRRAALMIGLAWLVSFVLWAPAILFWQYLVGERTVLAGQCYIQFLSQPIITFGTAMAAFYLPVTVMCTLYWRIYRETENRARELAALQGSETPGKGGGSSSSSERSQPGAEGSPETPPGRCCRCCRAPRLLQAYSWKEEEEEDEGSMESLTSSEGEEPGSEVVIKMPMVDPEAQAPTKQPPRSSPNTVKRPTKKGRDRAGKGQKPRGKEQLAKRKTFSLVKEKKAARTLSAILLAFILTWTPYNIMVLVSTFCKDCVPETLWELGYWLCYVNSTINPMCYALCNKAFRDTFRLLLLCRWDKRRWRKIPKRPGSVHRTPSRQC
How it was run: (§2)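 CHO cells stably expressing human M1, M2, M3 or M4 receptor, serum-starved overnight, then stimulated with agonist for 5 min at 37 °C. Cells lysed for 15 min and phospho-ERK1/2 detected in the lysate by AlphaScreen SureFire.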

[3] = molecular target: T3, human muscarinic M3 receptor (Homo sapiens, UniProt P20309); test: Alphascreen Surefire phospho-ERK1/2 functional assay, M3; details: CHO cells stably expressing human M3
T3 construct: expressed in transfected cells
Procedure: as §1

[4] = molecular target: T4, human muscarinic M4 receptor (Homo sapiens, UniProt P08173); test: Alphascreen Surefire phospho-ERK1/2 functional assay, M4; details: CHO cells stably expressing human M4
T4 construct: expressed in transfected cells
T4 sequence (P08173 1-479): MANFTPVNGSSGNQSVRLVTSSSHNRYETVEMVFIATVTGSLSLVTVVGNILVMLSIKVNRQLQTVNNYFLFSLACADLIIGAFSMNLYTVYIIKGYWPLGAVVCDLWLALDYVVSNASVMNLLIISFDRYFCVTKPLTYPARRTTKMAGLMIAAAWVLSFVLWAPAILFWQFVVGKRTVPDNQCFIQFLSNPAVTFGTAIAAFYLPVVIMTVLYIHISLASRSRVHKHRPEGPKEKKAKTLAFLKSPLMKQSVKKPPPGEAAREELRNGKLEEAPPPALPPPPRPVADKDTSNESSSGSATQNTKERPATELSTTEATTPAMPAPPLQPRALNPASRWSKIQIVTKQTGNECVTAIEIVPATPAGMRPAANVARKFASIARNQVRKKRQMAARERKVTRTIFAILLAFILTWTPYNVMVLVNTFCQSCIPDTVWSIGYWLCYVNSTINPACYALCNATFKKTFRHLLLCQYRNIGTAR
How it was run: as §2

T3 sequence (P20309 whole entry): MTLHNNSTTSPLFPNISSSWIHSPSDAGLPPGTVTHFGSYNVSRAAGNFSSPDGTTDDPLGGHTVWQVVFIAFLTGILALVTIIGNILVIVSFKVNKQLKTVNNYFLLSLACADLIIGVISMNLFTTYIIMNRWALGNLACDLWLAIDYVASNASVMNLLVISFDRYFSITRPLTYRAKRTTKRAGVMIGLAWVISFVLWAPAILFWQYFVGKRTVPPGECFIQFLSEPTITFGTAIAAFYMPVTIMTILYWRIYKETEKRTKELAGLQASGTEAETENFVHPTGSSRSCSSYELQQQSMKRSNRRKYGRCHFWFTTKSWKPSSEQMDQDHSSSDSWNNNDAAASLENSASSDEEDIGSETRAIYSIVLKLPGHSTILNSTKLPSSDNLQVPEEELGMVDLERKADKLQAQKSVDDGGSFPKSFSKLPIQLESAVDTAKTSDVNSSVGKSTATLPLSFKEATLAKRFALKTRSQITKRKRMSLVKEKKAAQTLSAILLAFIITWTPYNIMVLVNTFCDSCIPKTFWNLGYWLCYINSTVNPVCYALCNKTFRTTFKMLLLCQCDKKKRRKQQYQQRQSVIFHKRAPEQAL

CCN(CC)C(=O)[C@H]1[C@@H]2CN(C3CC4CCC(C3)N4c3nc(C)no3)C[C@@H]21 (single isomer, unassigned; isomer 2) [12-25 Isomer 2]
% Emax cf. ACh (M2) ([1]; Emax relative to ACh): (84) % | pEC50 M2 ([1]; agonist 5 min, 37° C.): 6.15 | % Emax cf. ACh (M1) ([2]; Emax relative to ACh): (91) % | pEC50 M1 ([2]; agonist 5 min, 37° C.): 8.55 | % Emax cf. ACh (M3) ([3]; Emax relative to ACh): (57) % | pEC50 M3 ([3]; agonist 5 min, 37° C.): 5.29 | % Emax cf. ACh (M4) ([4]; Emax relative to ACh): (119) % | pEC50 M4 ([4]; agonist 5 min, 37° C.): 6.82
